What was measured:
[1] = test system: PpIX fluorescence in human forearm or leg skin areas (hair follicle vs epidermis); assay: Macroscopic PpIX fluorescence imaging of skin after topical photosensitizer precursor; ratio r hair follicle/hairless epidermis; type: in vivo
Description: The photosensitizer precursors were formulated within standard excipients of the European Pharmacopoeia, namely unguentum leniens (UL) and unguentum hydrophilicum anionicum (UH); for some essays, the photosensitizer precursors were suspended either in pure glycerol (GLY) or in pure diethylene glycol monoethyl ether (DGME).
The formulations were administered topically on the forearm or the leg using the Tegaderm™ transparent dressing. This dressing enables the transport of water and oxygen according to the specifications of the manufacturer. This dressing was removed and the remaining formulation cleaned with pure ethanol just before the measurements performed at one single point in time. For the pharmacokinetic measurements, this dressing was removed after four hours. This removal of the Tegaderm™ during the remaining time course of the measurements induced negligible minimal alterations of the measurements due to the excellent transparency of this dressing at the wavelengths of interest.
A fluorescence imaging system illustrated by FIG. 9 was developed to assess the extent and level of PpIX production in “macroscopic” samples (parts of the human body such as: forearm, leg, back, etc.). As the goal is to assess the relative level of PpIX in the hair follicle of these samples, red light at 635 nm was chosen as PpIX fluorescence excitation wavelength. It is indeed well known that red light penetrates deeper in the cutaneous tissues than green and violet light, the later two wavelengths corresponding to larger PpIX absorption peaks (see the PpIX fluorescence excitation and emission spectra presented on the right side in FIG. 9).
As presented in the schematic diagram presented in FIG. 9, this fluorescence imaging system involves a modified 300 W D-light source 1 (Xe arc lamp from Storz, Tuttlingen, Germany) equipped with a red bandpass filter (635 nm, 20 nm FWHM; Chroma, USA). This fluorescence excitation light is coupled in a Storz 4 mm diameter light guide 2. The output of this light guide is imaged on the tissue sample 3 with a projection objective 4 (Nikon, Japan; AF Nikkor; 1:1.4 D/50 mm) to generate a homogenous spot of 2.5 cm in diameter with an irradiance of 2 mW/cm^2 at 635 nm. The distance between this projection objective 4 and the sample 3 is 25 cm. Therefore, the light beam illuminating the sample can be considered as parallel. The fluorescence is collected by another objective 5 (Fujinon, Japan; TV zoom lens; 1:1.2/12.5-75 mm; Type H6X12.5R-MD3) through a longpass filter 6 (Schott, Germany; RG665) and the image detected by a scientific CCD camera (752×582 pixels CF 8/1 Kappa, Gleichen, Germany) equipped 7 with an image intensifier (Proxifier BV 256-2FcZ-CH, Proxitronic, Bensheim, Germany). The images are captured by the 8-bits camera frame grabber and saved on the computer 8 with the “Kappa Imagebase-control” software. Image treatment is carried out using the IPLab imaging software. The spatial resolution of the complete setup has been measured with an USAF resolution target and the value we obtained in the sample plan is 3 lp/mm, the size of the image detected by the camera being 3×4 cm^2. A reference sample has been designed to enable a comparison of the relative fluorescence brightness between samples investigated at different times. This reference consists of a ruby disk (diameter: 12 mm; thickness: 1.02 mm; Type 8Sp3, Hans Stettler SA, Lyss, Switzerland) covered with a neutral density filter (T=2.27%) so that the signal obtained with this reference sample corresponds to the typical tissue fluorescence detected in our conditions.
The images were analyzed using the NIH image software. The method consisted in identifying the location of an area corresponding to: 1) one typical hair follicle and 2) epidermis presenting no skin appendages. The number of pixels involved in such an area was typically 100. […]

skin area = conditions: applied 15 to 25 hours, pulsed red light, cited from earlier work
sheep = conditions: light irradiation about 8 to 10 hours later, 600 to 700 nm; cited from earlier work
[2] = test system: skin area (hairs, follicles, epidermis); assay: Irradiation of treated skin areas at 635 nm: hair removal and skin reaction; type: in vivo, human; conditions: pure, applied 195 minutes; irradiated 200 minutes later, 30 J/cm^2 at 65 mW/cm^2 (FIG. 7A)
Description: The irradiation step of the skin areas treated by means of the various photosensitizer precursor compositions described above was conducted as follows: The irradiation of the skin was performed at 635 nm with an argon ion (Spectra-Physics, model 2020) pumped dye laser (Spectra-Physics, model 375B). The light was coupled in a frontal FD1 light distributor from Medlight SA (Ecublens, Switzerland). This distributor generated a uniform 2 cm in diameter spot. The typical irradiances and light doses were 60 to 130 mW/cm^2 and 30 to 130 J/cm^2, respectively. The irradiance was checked before and after all treatments. The light power delivered by the light distributor was determined using a power meter from Spectra-Physics (Model 407A, Mountain view, Calif., USA).
Thereafter, the skin was cleaned as indicated above. 15 minutes later, the skin area was irradiated with a light dose of 127 J/cm^2 at an irradiance of 127 mW/cm^2.
A first area was submitted to light irradiation after a waiting time equal to 200 minutes with a light dose of 61 J/cm^2 at an irradiance of 42.4 mW/cm^2. […] A second area was submitted to light irradiation 30 minutes after the end of drug administration. The light dose was 130 J/cm^2 at an irradiance of 56.6 mW/cm^2.
Thereafter, the skin was cleaned and irradiated 200 minutes later with a light dose of 30 J/cm^2 at an irradiance of 65 mW/cm^2.

[3] = three hours administration, 20% in DGME
[4] = three hours administration, 20% in glycerol

| SMILES | ratio r (hair follicle/epidermis fluorescence) [1, 3] | ratio r (hair follicle/epidermis fluorescence) [1, 4] | ratio r (fluorescence brightness hair follicle area / hairless epidermis area) ([1]; three hours after administration, in unguentum hydrophilicum) | hair removal (skin area; treatment repeated about 4 to 8 times) | duration of sunburn like side effects after an irradiation (skin area) | side effects in treated skin areas of test animals (sheep) | wool growth (sheep) | ratio r (hair follicle/epidermis fluorescence) ([1]; pure, lower leg, 3 hours, normal skin temperature of 31° C.) | ratio r (hair follicle/epidermis fluorescence) ([1]; pure, lower leg, three hours at 41° C. (electric blanket)) | skin reaction one day after irradiation [2] | kinetics of the hair follicle/epidermis fluorescence ratio ([1]; 20% in Unguentum Leniens, one volunteer, 0 to 1380 minutes (FIG. 10)) |
| --- | --- | --- | --- | --- | --- | --- | --- | --- | --- | --- | --- |
| Cl.NCC(=O)CCC(=O)O [ALA, 5-amino-levulinic acid hydrochloride] | 2.21 | 1.62 | 1.46 | effective | 2 to 20 days | edema, discoloration and crusting | significantly reduced | – | – | – | – |
| CCOCCOCCOC(=O)CCC(=O)CN [ALA-DGME, diethylene glycol monoethyl ether 5-amino-levulinate] | 3.24 | 2.51 | – | – | – | – | – | 3.47 | 4.72 | a clear reaction selectivity between the skin areas around follicles and the epidermis in bulk | – |
| COC(=O)CCC(=O)CN [m-ALA, methyl ester of ALA] | – | – | – | – | – | – | – | – | – | – | decreases rapidly during the first hours and tends to unity for longer times |
